In ChEMBL document CHEMBL4219219, “The synthesis and antistaphylococcal activity of N-sulfonaminoethyloxime derivatives of dehydroabietic acid” (Bioorg Med Chem Lett, 2018):
Converted amounts (≈) assume the structure as drawn. The source made the active and inactive calls. The rule behind the calls is not given here.

Key:
Staphylococcus aureus [1] = experiment: Antistaphylococcal activity against Staphylococcus aureus Newman after 18 hrs by two-fold serial dilution method; type: functional
Escherichia coli = experiment: Antibacterial activity against Escherichia coli AB1157 at 50 ug/ml after 18 hrs by two-fold serial dilution method; type: functional, organism-based
Staphylococcus aureus [2] = experiment: Antistaphylococcal activity against gentamicin-resistant Staphylococcus aureus NRS-108 after 18 hrs by two-fold serial dilution method; type: functional; conditions: NRS-108, 18 h
Staphylococcus aureus [3] = experiment: Antistaphylococcal activity against oxacillin/tetracycline-resistant Staphylococcus aureus NRS-100 after 18 hrs by two-fold serial dilution method; type: functional; conditions: NRS-100, 18 h
Staphylococcus aureus [4] = experiment: Antistaphylococcal activity against erythromycin-resistant Staphylococcus aureus NRS-70 after 18 hrs by two-fold serial dilution method; type: functional; conditions: NRS-70, 18 h
Staphylococcus aureus [5] = experiment: Antistaphylococcal activity against aminoglycosides/tetracycline-resistant Staphylococcus aureus NRS-1 after 18 hrs by two-fold serial dilution method; type: functional; conditions: NRS-1, 18 h
Staphylococcus aureus [6] = experiment: Antistaphylococcal activity against linezolid-resistant Staphylococcus aureus NRS-271 containing phage type E-MRSA 15 after 18 hrs by two-fold serial dilution method; type: functional; conditions: NRS-271, 18 h

| Structure (SMILES) | MIC (Staphylococcus aureus [1]) | Activity (Escherichia coli) | MIC (Staphylococcus aureus [2]) | MIC (Staphylococcus aureus [3]) | MIC (Staphylococcus aureus [4]) | MIC (Staphylococcus aureus [5]) | MIC (Staphylococcus aureus [6]) |
| --- | --- | --- | --- | --- | --- | --- | --- |
| CC(C)c1cc2c(cc1Br)[C@@]1(C)CCC[C@@](C)(C(=O)O)[C@@H]1C/C2=N\OCCNS(=O)(=O)c1ccccc1C(F)(F)F | > 50 µg/mL | inactive |  |  |  |  |  |
| CC(C)c1cc2c(cc1Br)[C@@]1(C)CCC[C@@](C)(C(=O)O)[C@@H]1C/C2=N\OCCNS(=O)(=O)c1ccccc1 | 1.56 to 3.13 µg/mL (≈ 2.64 to 5.29 µM) | inactive | 1.56 to 3.13 µg/mL (≈ 2.64 to 5.29 µM) | 1.56 to 3.13 µg/mL (≈ 2.64 to 5.29 µM) | 0.78 to 1.56 µg/mL (≈ 1.32 to 2.64 µM) | 1.56 to 3.13 µg/mL (≈ 2.64 to 5.29 µM) | 1.56 to 3.13 µg/mL (≈ 2.64 to 5.29 µM) |
| CC(C)c1cc2c(cc1Br)[C@@]1(C)CCC[C@@](C)(C(=O)O)[C@@H]1C/C2=N\OCCNS(=O)(=O)c1ccc(C(C)(C)C)cc1 | 3.13 to 6.25 µg/mL (≈ 4.83 to 9.65 µM) | inactive |  |  |  |  |  |
| Cc1ccc(C)c(S(=O)(=O)NCCO/N=C2\C[C@H]3[C@](C)(C(=O)O)CCC[C@]3(C)c3cc(Br)c(C(C)C)cc32)c1 | 1.56 to 3.13 µg/mL (≈ 2.52 to 5.05 µM) | inactive | 1.56 to 3.13 µg/mL (≈ 2.52 to 5.05 µM) | 1.56 to 3.13 µg/mL (≈ 2.52 to 5.05 µM) | 0.78 to 1.56 µg/mL (≈ 1.26 to 2.52 µM) | 3.13 to 6.25 µg/mL (≈ 5.05 to 10.1 µM) | 3.13 to 6.25 µg/mL (≈ 5.05 to 10.1 µM) |
| CC(C)c1cc2c(cc1Br)[C@@]1(C)CCC[C@@](C)(C(=O)O)[C@@H]1C/C2=N\OCCN | > 50 µg/mL | inactive |  |  |  |  |  |
| CC(C)c1cc2c(cc1Br)[C@@]1(C)CCC[C@@](C)(C(=O)O)[C@@H]1C/C2=N\OCCNS(=O)(=O)c1cccc(C(F)(F)F)c1 | 0.39 to 0.78 µg/mL (≈ 0.591 to 1.18 µM) | inactive | 0.78 to 1.56 µg/mL (≈ 1.18 to 2.37 µM) | 1.56 to 3.13 µg/mL (≈ 2.37 to 4.75 µM) | 0.78 to 1.56 µg/mL (≈ 1.18 to 2.37 µM) | 1.56 to 3.13 µg/mL (≈ 2.37 to 4.75 µM) | 1.56 to 3.13 µg/mL (≈ 2.37 to 4.75 µM) |
| CC(C)c1cc2c(cc1Br)[C@@]1(C)CCC[C@@](C)(C(=O)O)[C@@H]1C/C2=N\OCCNS(=O)(=O)c1ccc(Cl)cc1Cl | 0.78 to 1.56 µg/mL (≈ 1.18 to 2.36 µM) | inactive | 0.78 to 1.56 µg/mL (≈ 1.18 to 2.36 µM) | 0.78 to 1.56 µg/mL (≈ 1.18 to 2.36 µM) | 0.39 to 0.78 µg/mL (≈ 0.59 to 1.18 µM) | 0.78 to 1.56 µg/mL (≈ 1.18 to 2.36 µM) | 0.78 to 1.56 µg/mL (≈ 1.18 to 2.36 µM) |
| CC(C)c1cc2c(cc1Br)[C@@]1(C)CCC[C@@](C)(C(=O)O)[C@@H]1C/C2=N\OCCNS(=O)(=O)c1ccccc1Cl | 0.78 to 1.56 µg/mL (≈ 1.25 to 2.49 µM) | inactive | 1.56 to 3.13 µg/mL (≈ 2.49 to 5 µM) | 1.56 to 3.13 µg/mL (≈ 2.49 to 5 µM) | 0.78 to 1.56 µg/mL (≈ 1.25 to 2.49 µM) | 1.56 to 3.13 µg/mL (≈ 2.49 to 5 µM) | 1.56 to 3.13 µg/mL (≈ 2.49 to 5 µM) |
| CC(C)c1cc2c(cc1Br)[C@@]1(C)CCC[C@@](C)(C(=O)O)[C@@H]1C/C2=N\OCCNS(=O)(=O)c1ccccc1F | 1.56 to 3.13 µg/mL (≈ 2.56 to 5.13 µM) | inactive | 3.13 to 6.25 µg/mL (≈ 5.13 to 10.3 µM) | 3.13 to 6.25 µg/mL (≈ 5.13 to 10.3 µM) | 1.56 to 3.13 µg/mL (≈ 2.56 to 5.13 µM) | 1.56 to 3.13 µg/mL (≈ 2.56 to 5.13 µM) | 1.56 to 3.13 µg/mL (≈ 2.56 to 5.13 µM) |
| CC(C)c1cc2c(cc1Br)[C@@]1(C)CCC[C@@](C)(C(=O)O)[C@@H]1C/C2=N\OCCNS(=O)(=O)c1cc(C(F)(F)F)cc(C(F)(F)F)c1 | 0.78 to 1.56 µg/mL (≈ 1.07 to 2.14 µM) | inactive | 0.78 to 1.56 µg/mL (≈ 1.07 to 2.14 µM) | > 50 µg/mL | 0.78 to 1.56 µg/mL (≈ 1.07 to 2.14 µM) | > 50 µg/mL | > 50 µg/mL |
| CC(C)c1cc2c(cc1Br)[C@@]1(C)CCC[C@@](C)(C(=O)O)[C@@H]1C/C2=N\OCCNS(=O)(=O)c1ccc(Cl)c(C(F)(F)F)c1 | 0.78 to 1.56 µg/mL (≈ 1.12 to 2.25 µM) | inactive | 0.78 to 1.56 µg/mL (≈ 1.12 to 2.25 µM) | > 50 µg/mL | 0.78 to 1.56 µg/mL (≈ 1.12 to 2.25 µM) | 12.5 to 25 µg/mL (≈ 18 to 36 µM) | 25 to 50 µg/mL (≈ 36 to 72 µM) |
| CC(C)c1cc2c(cc1Br)[C@@]1(C)CCC[C@@](C)(C(=O)O)[C@@H]1C/C2=N\OCCNS(=O)(=O)c1ccc(Br)c(C(F)(F)F)c1 | 0.78 to 1.56 µg/mL (≈ 1.06 to 2.11 µM) | inactive | 0.78 to 1.56 µg/mL (≈ 1.06 to 2.11 µM) | 0.78 to 1.56 µg/mL (≈ 1.06 to 2.11 µM) | 0.78 to 1.56 µg/mL (≈ 1.06 to 2.11 µM) | 0.78 to 1.56 µg/mL (≈ 1.06 to 2.11 µM) | 0.78 to 1.56 µg/mL (≈ 1.06 to 2.11 µM) |
| CCCS(=O)(=O)NCCO/N=C1\C[C@H]2[C@](C)(C(=O)O)CCC[C@]2(C)c2cc(Br)c(C(C)C)cc21 | 12.5 to 25 µg/mL (≈ 22.4 to 44.8 µM) | inactive |  |  |  |  |  |
| Cc1ccc(S(=O)(=O)NCCO/N=C2\C[C@H]3[C@](C)(C(=O)O)CCC[C@]3(C)c3cc(Br)c(C(C)C)cc32)cc1 | 1.56 to 3.13 µg/mL (≈ 2.58 to 5.17 µM) | inactive | 1.56 to 3.13 µg/mL (≈ 2.58 to 5.17 µM) | 3.13 to 6.25 µg/mL (≈ 5.17 to 10.3 µM) | 1.56 to 3.13 µg/mL (≈ 2.58 to 5.17 µM) | 3.13 to 6.25 µg/mL (≈ 5.17 to 10.3 µM) | 3.13 to 6.25 µg/mL (≈ 5.17 to 10.3 µM) |
| Cc1ccccc1S(=O)(=O)NCCO/N=C1\C[C@H]2[C@](C)(C(=O)O)CCC[C@]2(C)c2cc(Br)c(C(C)C)cc21 | 1.56 to 3.13 µg/mL (≈ 2.58 to 5.17 µM) | inactive | 1.56 to 3.13 µg/mL (≈ 2.58 to 5.17 µM) | 3.13 to 6.25 µg/mL (≈ 5.17 to 10.3 µM) | 1.56 to 3.13 µg/mL (≈ 2.58 to 5.17 µM) | 1.56 to 3.13 µg/mL (≈ 2.58 to 5.17 µM) | 1.56 to 3.13 µg/mL (≈ 2.58 to 5.17 µM) |
| CC(C)c1cc2c(cc1Br)[C@@]1(C)CCC[C@@](C)(C(=O)O)[C@@H]1C/C2=N\OCCNS(=O)(=O)c1cccs1 |  | inactive |  |  |  |  |  |
| CC(C)c1cc2c(cc1Br)[C@@]1(C)CCC[C@@](C)(C(=O)O)[C@@H]1C/C2=N\OCCNS(=O)(=O)c1ccc(Cl)nc1 | 3.13 to 6.25 µg/mL (≈ 4.99 to 9.97 µM) | inactive |  |  |  |  |  |
| CC(C)c1cc2c(cc1Br)[C@@]1(C)CCC[C@@](C)(C(=O)O)[C@@H]1C/C2=N\OCCNS(=O)(=O)c1cccnc1 | 3.13 to 6.25 µg/mL (≈ 5.28 to 10.5 µM) | inactive |  |  |  |  |  |
